# Values of other authors, collected in patent publication US9932302B1, “N-phenyl and N-benzyl enaminones and methods for using same” (University of Maryland Eastern Shore, priority 2013, dated 2018).
# Assays:
# Conditions in all cases: pre-clinical pharmacological profile
# [1] = test system: 6 Hz psychomotor seizure
# [2] = test system: maximal electroshock seizure (MES)
# [3] = test system: subcutaneous Metrazol (sc Met) induced seizure
SMILES,6 Hz activity profile of current AED [1],MES activity profile of current AED [2],scPTZ activity profile of current AED [3]
CC[C@@H](C(N)=O)N1CCCC1=O [levetiracetam],active,,
O=C1NC(=O)C(c2ccccc2)(c2ccccc2)N1 [phenytoin],,active,active
